Experiments:
Assay type in all cases: cell-based
Conditions in all cases: 24 hours treatment, relative to vehicle control (DMSO)
p62 oligomers = target: T1, p62 oligomers (Homo sapiens, UniProt Q13501); experiment: p62 oligomerization assay by Western blot in HeLa cells
T1 construct: endogenous in cells; host or cells: HeLa
Protocol: (§1) HeLa cells were seeded in 6-well plates (700,000 cells) and allowed to adhere overnight. Media was replaced one hour before administering either vehicle (DMSO) or test compounds. After 24 hours of treatment, the media was discarded, and cells were rinsed once with ice-cold 1×PBS before detached from plates with ice-cold RIPA Lysis and Extraction Buffer (Thermo Fisher Scientific) which was supplemented with protease and phosphatase inhibitors. The resulting cell suspensions were transferred to pre-chilled microcentrifuge tubes, incubated on ice for 20 min with intermittent mixing and then centrifuged at 12,000 rpm for 20 min at 4° C. The supernatants were then aspirated slowly and transferred into new tubes kept on ice. The protein concentration in the samples was determined using BCA kit (Thermo Fisher Scientific) as per manufacturer's instructions.
(§2) For the p62 oligomerization and LC3 lipidation assays, cell lysates were prepared using RIPA buffer supplemented with 2% SDS and benzonase (Sigma). The lysates were then combined with 4× Laemmli protein sample buffer (Bio-Rad), heated at 70° C. for 10 min and subjected to a brief centrifugation of 10-15 seconds.
(§3) For p62 oligomerization and LC3 lipidation assays, lysates containing 30 μg of protein and for BRD4 and FKBP12(F36V) degradation assays, lysates containing 20 μg of protein, were loaded slowly into the wells of 4-20% gradient Tris-glycine gels (Bio-Rad). The gels were run at 100V until completion and transferred onto PVDF membranes. Membranes were blocked using 5% milk in TBS-Tween (0.1%) buffer at room temperature for 1 hour. The membranes were incubated with primary antibody in 5% milk-TBST with shaking, overnight at 4° C. The primary antibodies used were: p62 (Novus Biologicals 2C11, H00008878-MO1), LC3A/B (Cell Signalling Technology D3U4C, 12741S), FKBP12 (Abcam ab24373), BRD4 (Cell Signalling Technology E2A7X, 13440S), GAPDH (Cell Signalling Technology D4C6R, 97166S), and β-Actin (Proteintech 66009-1-Ig). Following primary antibody incubation, membranes were washed thrice with TBST 10 min before and after incubation with secondary-HRP conjugated antibody in 5% milk-TBST for 1 hour at room temperature. The secondary antibodies used were: Anti-Mouse IgG HRP Conjugate (Promega W4021B) and Anti-Rabbit IgG HRP Conjugate (Promega W4011). For the p62 oligomerization assay, the total protein levels were assessed using Ponceau staining (Thermo Fisher Scientific) of PVDF membrane as per recommendation by manufacturer's guidelines.
(§4) Imaging was acquired using SuperSignal™ West Pico PLUS Chemiluminescent Substrate (Thermo Fisher Scientific) with iBright Invitrogen FL100 imaging system. Band signal intensity, reflective of protein concentrations, were quantified using Invitrogen™ iBright™ Analysis and Image J software.
HeLa cells were treated with compounds for 24 hours to evaluate the effect of these compounds on p62 oligomerisation activity. The resulting changes in levels of p62 oligomers were assessed by Western blotting, as described in experimental procedures. The fold change of p62 oligomer levels induced by compound treatment relative to vehicle control (DMSO) was determined and summarized in Table 8. Specifically, FIGS. 2A-C show Western blot images and their corresponding quantification showing the levels of high molecular weight (100-200 kDa) p62 oligomers by 24 hours compound treatments at listed concentrations, relative to vehicle control (DMSO) in HeLa cells. Protein loading consistencies was assessed by Ponceau staining (not shown).

LC3 protein = experiment: LC3 lipidation (LC3-II/LC3-I) assay by Western blot in HeLa cells
Protocol: as §1, §2, §3, §4
HeLa cells were treated with compounds for 24 hours to evaluate the effect of these compounds on LC3-II/LC3-I levels, a measure of autophagy activation. The changes in levels of LC3-I, LC3-II and […] (loading control) were assessed by Western blotting, as described in experimental procedures. The fold increase of LC3-II/LC3-I levels induced by compound treatment relative to vehicle control (DMSO) was determined and summarized in Table 9. Specifically, FIGS. 3A-C show Western blot images and their corresponding quantification showing the lipidation levels of LC3 protein (LC3-II/LC3-I) by 24 hours compound treatments at listed concentrations, relative to vehicle control (DMSO) in HeLa cells.

p62 puncta = p62 puncta immunocytochemistry imaging in HeLa cells
Method in brief: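 Following 24 h compound or DMSO treatment, HeLa cells were fixed and immunostained for p62 with DAPI counterstain. Puncta counted by imaging on EVOS M7000 (20× objective) or Operetta CLS (63× water objective); reported as fold change versus DMSO.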

T1 sequence (Q13501 whole entry): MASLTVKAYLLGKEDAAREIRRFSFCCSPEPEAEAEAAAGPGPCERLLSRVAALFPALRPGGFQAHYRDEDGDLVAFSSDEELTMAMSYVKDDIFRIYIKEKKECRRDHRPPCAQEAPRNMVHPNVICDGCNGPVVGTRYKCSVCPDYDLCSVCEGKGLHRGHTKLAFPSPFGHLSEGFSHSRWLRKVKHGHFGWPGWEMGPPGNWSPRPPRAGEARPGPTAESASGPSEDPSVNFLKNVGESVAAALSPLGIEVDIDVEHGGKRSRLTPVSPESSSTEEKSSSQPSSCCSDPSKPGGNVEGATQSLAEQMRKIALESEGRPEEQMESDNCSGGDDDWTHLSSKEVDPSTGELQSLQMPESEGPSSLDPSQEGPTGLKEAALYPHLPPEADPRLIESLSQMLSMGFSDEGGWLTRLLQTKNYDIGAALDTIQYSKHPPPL

| Compound | p62 oligomerization (fold change of p62 oligomer levels) (p62 oligomers) | LC3 lipidation (fold increase of LC3-II/LC3-I levels) (LC3 protein) | p62 puncta (fold change of p62 puncta levels) (p62 puncta) |
| --- | --- | --- | --- |
| OCCNCc1cccc2c1ccn2Cc1ccccc1 [Compound 1, 2-(((1-benzyl-1H-indol-4-yl)methyl)amino)ethan-1-ol] | ++ (>2-fold change relative to DMSO control) | + (<2-fold change in LC3-II/LC3-I relative to DMSO control) | + (<2-fold change in p62 puncta levels relative to DMSO control) |
| OCCNCc1cc(F)cc2c1ccn2Cc1ccc(Cl)cc1 [Compound 45, 2-(((1-(4-chlorobenzyl)-6-fluoro-1H-indol-4-yl)methyl)amino)ethan-1-ol] | ++ (>2-fold change relative to DMSO control) | ++ (>2-fold change in LC3-II/LC3-I relative to DMSO control) | ++ (>2-fold change in p62 puncta levels relative to DMSO control) |
| OCCNCc1cc(F)cc2c1ccn2Cc1ccc(F)cc1 [Compound 44] | ++ (>2-fold change relative to DMSO control) | ++ (>2-fold change in LC3-II/LC3-I relative to DMSO control) | ++ (>2-fold change in p62 puncta levels relative to DMSO control) |

Source: US20250243160A1, “INDOLE DERIVATIVES FOR TARGETING AUTOPHAGY” (Automera PTE. LTD, priority 2024, published 2025)
